The target in the assay is T1, mOTOP1 (Mus musculus, UniProt Q80VM9).
T1 construct: gene Otop1; full length in HEK-293 / PAC-KO cells; homodimer
T1 sequence (Q80VM9 1-600): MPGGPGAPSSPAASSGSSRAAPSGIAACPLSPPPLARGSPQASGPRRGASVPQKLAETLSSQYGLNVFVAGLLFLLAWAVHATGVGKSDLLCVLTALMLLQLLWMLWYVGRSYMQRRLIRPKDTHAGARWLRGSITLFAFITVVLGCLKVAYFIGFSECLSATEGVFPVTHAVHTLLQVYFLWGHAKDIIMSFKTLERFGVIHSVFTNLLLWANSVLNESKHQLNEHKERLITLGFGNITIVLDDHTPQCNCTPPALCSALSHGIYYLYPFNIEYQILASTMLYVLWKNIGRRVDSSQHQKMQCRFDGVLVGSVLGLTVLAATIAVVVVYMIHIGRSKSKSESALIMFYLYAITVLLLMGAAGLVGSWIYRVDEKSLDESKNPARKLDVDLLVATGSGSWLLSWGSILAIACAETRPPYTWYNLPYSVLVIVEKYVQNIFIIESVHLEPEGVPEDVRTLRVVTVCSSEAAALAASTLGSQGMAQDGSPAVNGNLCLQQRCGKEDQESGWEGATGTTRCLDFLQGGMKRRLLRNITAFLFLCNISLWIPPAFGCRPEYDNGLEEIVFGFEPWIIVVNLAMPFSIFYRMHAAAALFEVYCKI
In words: whole-cell patch clamp, inward current in HEK-293. Format: cell-based.

Molecules are shown by their SMILES.

This passage reports EC50 results from article PMC10556057, “The proton channel OTOP1 is a sensor for the taste of ammonium chloride” (Nature Communications, 2023).

A word on the EC50: it is the concentration that produces a half-maximal response. A lower EC50 goes with a more potent agent.

Compound `N` [NH4Cl] showed an EC50 of 18.7 mM.
